Test results taken from the supplement of paper PMC10307832.

Compound: C(C(=O)C(=O)O)Br [Bromopyruvate] + CC1(C)CCC(c2ccc(Cl)cc2)=C(CN2CCN(c3ccc(C(=O)NS(=O)(=O)c4ccc(N[C@H](CCN5CCOCC5)CSc5ccccc5)c(S(=O)(=O)C(F)(F)F)c4)cc3)CC2)C1 [Navitoclax] (partner 0.5 µM)
Test: relative viability (nuclei count vs DMSO), 5 days (fraction); higher = more cells survive
Conditions: first compound 1 µM
Method in brief: (§1)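 Five library-drug doses in √10 steps were combined with a fixed anchor-drug dose, or a single drug was given alone, by pin tool to lung cancer cell lines in 1536-well plates the day after seeding. Nuclei were stained and counted after 5 days. Relative viability is the nuclei count in treated wells over that in vehicle wells, taken as the median of duplicate plates.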

Going from NCI-H1944 to NCI-H1975, the relative viability rises from 1.08 to 1.18.

Compared with SK-LU-1, RERF-LC-KJ is higher in relative viability: 0.866 for the first, 1.05 for the second.

Same assay, conditions: first compound 3.162 µM

Going from NCI-H1944 to NCI-H1975, the relative viability rises from 1.15 to 1.26.

Compared with SK-LU-1, RERF-LC-KJ is lower in relative viability: 0.971 for the first, 0.822 for the second.

Same assay, conditions: first compound 10 µM

Compared with NCI-H1944, NCI-H1975 is higher in relative viability: 1.02 for the first, 1.08 for the second.

Going from SK-LU-1 to RERF-LC-KJ, the relative viability rises from 0.935 to 1.05.

Same assay, conditions: first compound 31.62 µM

Going from NCI-H1944 to NCI-H1975, the relative viability rises from 1.01 to 1.31.

First: SK-LU-1
Second: RERF-LC-KJ
The relative viability of the first is lower: 0.734 for the first, 0.868 for the second.

Same assay, conditions: first compound 100 µM

Going from NCI-H1944 to NCI-H1975, the relative viability falls from 1.05 to 0.994.

Going from SK-LU-1 to RERF-LC-KJ, the relative viability rises from 0.574 to 0.98.

Compound: CC(O)(CS(=O)(=O)c1ccc(F)cc1)C(=O)Nc1ccc(C#N)c(C(F)(F)F)c1 [Bicalutamide] + CC1(C)CCC(c2ccc(Cl)cc2)=C(CN2CCN(c3ccc(C(=O)NS(=O)(=O)c4ccc(N[C@H](CCN5CCOCC5)CSc5ccccc5)c(S(=O)(=O)C(F)(F)F)c4)cc3)CC2)C1 [Navitoclax] (partner 0.5 µM)
Test: as above
Conditions: first compound 0.08 µM
Method in brief: as §1

Compared with NCI-H1944, NCI-H1975 is lower in relative viability: 1.04 for the first, 0.951 for the second.

First: SK-LU-1
Second: RERF-LC-KJ
The relative viability of the first is higher: 1.04 for the first, 0.951 for the second.

Same assay, conditions: first compound 0.253 µM

Compared with NCI-H1944, NCI-H1975 is lower in relative viability: 1.08 for the first, 1.05 for the second.

Going from SK-LU-1 to RERF-LC-KJ, the relative viability falls from 1.04 to 0.98.

Same assay, conditions: first compound 0.8 µM

Compared with NCI-H1944, NCI-H1975 is higher in relative viability: 1.08 for the first, 1.23 for the second.

First: SK-LU-1
Second: RERF-LC-KJ
The relative viability of the first is higher: 1.38 for the first, 0.793 for the second.

Same assay, conditions: first compound 2.53 µM

First: NCI-H1944
Second: NCI-H1975
The relative viability of the first is lower: 1.03 for the first, 1.12 for the second.

Compared with SK-LU-1, RERF-LC-KJ is lower in relative viability: 0.902 for the first, 0.799 for the second.

Compound: CC(O)(CS(=O)(=O)c1ccc(F)cc1)C(=O)Nc1ccc(C#N)c(C(F)(F)F)c1 [Bicalutamide] + COc1cc2c(Oc3ccc(NC(=O)C4(C(=O)Nc5ccc(F)cc5)CC4)cc3F)ccnc2cc1OCCCN1CCOCC1 [Foretinib] (partner 0.25 µM)
Test: as above
Conditions: first compound 0.08 µM
Method in brief: as §1

Going from NCI-H1944 to NCI-H1975, the relative viability rises from 0.837 to 1.07.

Compared with SK-LU-1, RERF-LC-KJ is lower in relative viability: 0.99 for the first, 0.814 for the second.

Same assay, conditions: first compound 0.253 µM

First: NCI-H1944
Second: NCI-H1975
The relative viability of the first is lower: 0.749 for the first, 0.824 for the second.

First: SK-LU-1
Second: RERF-LC-KJ
The relative viability of the first is lower: 0.785 for the first, 0.927 for the second.

Same assay, conditions: first compound 0.8 µM

First: NCI-H1944
Second: NCI-H1975
The relative viability of the first is higher: 0.981 for the first, 0.971 for the second.

Going from SK-LU-1 to RERF-LC-KJ, the relative viability rises from 1.01 to 1.04.

Same assay, conditions: first compound 2.53 µM

First: NCI-H1944
Second: NCI-H1975
The relative viability of the first is lower: 0.775 for the first, 0.827 for the second.

Compared with SK-LU-1, RERF-LC-KJ is higher in relative viability: 0.78 for the first, 0.889 for the second.

Compound: CC(O)(CS(=O)(=O)c1ccc(F)cc1)C(=O)Nc1ccc(C#N)c(C(F)(F)F)c1 [Bicalutamide] + Nc1nc2[nH]cc(CCc3ccc(C(=O)N[C@@H](CCC(=O)O)C(=O)O)cc3)c2c(=O)[nH]1 [Pemetrexed] (partner 0.2 µM)
Test: as above
Conditions: first compound 0.08 µM
Method in brief: as §1

Compared with NCI-H1944, NCI-H1975 is lower in relative viability: 0.562 for the first, 0.316 for the second.

Compared with SK-LU-1, RERF-LC-KJ is lower in relative viability: 1.03 for the first, 0.471 for the second.

Same assay, conditions: first compound 0.253 µM

Compared with NCI-H1944, NCI-H1975 is lower in relative viability: 0.599 for the first, 0.311 for the second.

First: SK-LU-1
Second: RERF-LC-KJ
The relative viability of the first is higher: 1.02 for the first, 0.457 for the second.

Same assay, conditions: first compound 0.8 µM

Going from NCI-H1944 to NCI-H1975, the relative viability falls from 0.681 to 0.299.

Compared with SK-LU-1, RERF-LC-KJ is lower in relative viability: 1.19 for the first, 0.517 for the second.

Same assay, conditions: first compound 2.53 µM

Compared with NCI-H1944, NCI-H1975 is lower in relative viability: 0.611 for the first, 0.306 for the second.

Compared with SK-LU-1, RERF-LC-KJ is lower in relative viability: 0.928 for the first, 0.492 for the second.
